What was measured:
[1] = Effective passive permeability of the compound assessed as membrane retention at 100 uM at pH 7.4 after 18 hrs by UHPLC-UV based PAMPA-BBB assay; format: ADME; settings: pH 7.4, 18 h
[2] = Effective passive permeability of the compound at 100 uM at pH 7.4 after 18 hrs by UHPLC-UV based PAMPA-BBB assay; format: ADME; settings: read-out: Peff
[3] = target: T1, Protein deacetylase HDAC6 (Homo sapiens, UniProt Q9UBN7); assay: Inhibition of human recombinant HDAC6 expressed in baculovirus infected insect cells using BATCP as substrate after 4 hrs by UHPLC-ESI-MS/MS analysis
T1 sequence (Q9UBN7 whole entry): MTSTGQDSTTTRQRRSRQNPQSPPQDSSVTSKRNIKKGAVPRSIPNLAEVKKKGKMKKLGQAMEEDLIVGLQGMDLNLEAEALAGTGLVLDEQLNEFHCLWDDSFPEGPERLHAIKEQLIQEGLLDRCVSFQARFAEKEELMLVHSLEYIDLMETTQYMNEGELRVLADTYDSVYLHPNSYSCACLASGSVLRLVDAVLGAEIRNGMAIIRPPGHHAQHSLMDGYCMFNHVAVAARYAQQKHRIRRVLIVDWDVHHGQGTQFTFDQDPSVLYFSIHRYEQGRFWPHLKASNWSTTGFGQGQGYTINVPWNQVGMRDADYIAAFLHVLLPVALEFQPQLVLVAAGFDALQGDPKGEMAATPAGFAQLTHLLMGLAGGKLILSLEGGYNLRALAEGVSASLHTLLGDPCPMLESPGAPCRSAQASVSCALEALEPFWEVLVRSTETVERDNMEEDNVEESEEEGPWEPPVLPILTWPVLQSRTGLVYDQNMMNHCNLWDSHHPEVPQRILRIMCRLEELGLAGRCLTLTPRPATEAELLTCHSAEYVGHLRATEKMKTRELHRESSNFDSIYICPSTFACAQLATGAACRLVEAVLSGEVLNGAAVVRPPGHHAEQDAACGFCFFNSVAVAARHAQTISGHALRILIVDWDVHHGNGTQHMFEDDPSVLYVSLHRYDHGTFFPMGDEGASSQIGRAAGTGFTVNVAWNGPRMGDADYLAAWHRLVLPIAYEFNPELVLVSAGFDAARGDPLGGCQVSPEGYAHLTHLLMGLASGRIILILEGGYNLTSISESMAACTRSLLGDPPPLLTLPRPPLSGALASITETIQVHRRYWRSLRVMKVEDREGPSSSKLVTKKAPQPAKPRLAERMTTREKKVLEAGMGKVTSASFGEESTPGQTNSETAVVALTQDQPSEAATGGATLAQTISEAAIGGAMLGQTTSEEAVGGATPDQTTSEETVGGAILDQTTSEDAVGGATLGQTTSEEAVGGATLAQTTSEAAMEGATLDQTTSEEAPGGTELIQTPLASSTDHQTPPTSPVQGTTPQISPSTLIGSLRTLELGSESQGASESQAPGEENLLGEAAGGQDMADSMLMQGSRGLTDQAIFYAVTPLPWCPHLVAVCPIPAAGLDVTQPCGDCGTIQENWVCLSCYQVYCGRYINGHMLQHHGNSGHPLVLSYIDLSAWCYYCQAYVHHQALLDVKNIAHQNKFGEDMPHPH

[4] = Inhibition of HDAC in human SHSY5Y cells using MAL as substrate after 8 hrs by UHPLC-ESI-MS/MS analysis; format: cell-based; settings: SH-SY5Y
[5] = target: T2, Histone deacetylase 1 (Homo sapiens, UniProt Q13547); assay: biochemical
[6] = target: Histone deacetylase 1/2/3 (Homo sapiens, UniProt Q13547+O15379+Q92769); format: protein assay
[7] = target: T1, Protein deacetylase HDAC6; assay: Inhibition of HDAC6 in human SHSY5Y cells using BATCP as substrate after 8 hrs by UHPLC-ESI-MS/MS analysis; format: cell-based, SH-SY5Y
[8] = target: T2, Histone deacetylase 1

T2 sequence (Q13547 whole entry): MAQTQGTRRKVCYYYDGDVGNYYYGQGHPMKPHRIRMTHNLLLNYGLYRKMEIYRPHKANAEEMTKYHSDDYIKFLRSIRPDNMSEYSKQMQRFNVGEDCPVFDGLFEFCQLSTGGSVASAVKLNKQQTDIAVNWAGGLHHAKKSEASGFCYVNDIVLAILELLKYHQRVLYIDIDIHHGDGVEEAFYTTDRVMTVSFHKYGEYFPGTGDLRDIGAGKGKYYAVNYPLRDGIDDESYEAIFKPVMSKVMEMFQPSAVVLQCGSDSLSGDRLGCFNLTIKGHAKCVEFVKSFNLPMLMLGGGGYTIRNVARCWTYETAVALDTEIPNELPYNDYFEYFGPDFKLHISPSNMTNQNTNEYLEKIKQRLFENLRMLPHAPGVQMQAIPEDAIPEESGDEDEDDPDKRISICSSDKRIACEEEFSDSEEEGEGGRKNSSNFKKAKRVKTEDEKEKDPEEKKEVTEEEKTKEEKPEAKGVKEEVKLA

R% [1]	Papp at 18 h, 100 µM [2]	IC50 [3]	IC50 [4]	IC50 [5]	IC50 [6]	IC50 [7]	IC50 [8]	Structure (SMILES)
< 1%	< 2 ×10⁻⁶ cm/s							CC(C)(C)OC(=O)ON(C(=O)CCCCCCC(=O)N(OC(=O)OC(C)(C)C)C(=O)OC(C)(C)C)C(=O)OC(C)(C)C
< 1%	< 2 ×10⁻⁶ cm/s							O=C(CCCCCCC(=O)NO)NO [SUBEROHYDROXAMIC ACID]

More lines, now with the values behind:

Structure (SMILES)	R% [1]	Papp at 18 h, 100 µM [2]	IC50 [3]	IC50 [4]	IC50 [5]	IC50 [6]	IC50 [7]	IC50 [8]
O=C(CCCCCc1ccc2c(c1)OCO2)NO	6.8%	8.7 ×10⁻⁶ cm/s	36.7 nM	310 nM	560 nM	188.1 nM	164 nM	973 nM
CC(/C=C/C(=O)NO)=C\[C@@H](C)C(=O)c1ccc(N(C)C)cc1 [TRICHOSTATIN]				9.1 nM				
CN1CCc2c(c3ccccc3n2Cc2ccc(C(=O)NO)cc2)C1 [TUBASTATIN A]	70.8%	6.8 ×10⁻⁶ cm/s		122 nM				

— ChEMBL document CHEMBL3860072, “Synthesis of a selective HDAC6 inhibitor active in neuroblasts” (Bioorg Med Chem Lett, 2016)
